# From patent US11992497B2 (priority 2021, dated 2024)
# Columns and labels:
# HCT116 [1] = test: GI50 by MTS assay; type: cell-based; conditions: Homo sapiens, HCT-116
# Procedure: (§1) For MTS assay, the compounds have been tested at 8 concentrations on 4 colon cancer cell lines for 48 hours. The compounds, concentrations and colon cancer cell line panel tested are the following: • CBG: 0 μM, 1.25 μM, 2.5 μM, 5 μM, 10 μM, 20 μM, 40 μM, and 80 μM. • Compound 1: 0 μM, 1.25 μM, 2.5 μM, 5 μM, 10 μM, 20 μM, 40 μM, and 80 μM. • Compound 2: 0 μM, 1.25 μM, 2.5 μM, 5 μM, 10 μM, 20 μM, 40 μM, and 80 μM. • Colon cancer cell line panel: SW620, HCT15, HT29, HCTl16
# (§2) Four colon cancer cell lines of SW620, HCT15, HT29, and HCT116 were included in the colon cancer cell line panel.
# (§3) CBG, compound 1 and compound 2 were dissolved in DMSO at a concentration of 10 mM and stored at −20° C.
# (§4) Evaluation of DM compounds treatment-induced growth inhibition was performed to determine the GI50 of four colon cancer cell lines with MTS assay or clonogenic assay. Each experiment was repeated in triplicate. In GraphPad Prism, data were log-transformed and fit with a nonlinear curve to calculate the GI50.
# (§5) MTS assay. cells were plated at 96 well plates at a density of 1,000 cells per well. After 24 hours, cells were treated with DM compounds at increasing concentrations or DMSO vehicle and incubated for 48 hours. 20 μl of MTS reagent (Promega) was then added and incubated for 2 hours. The absorbance was measured with a microplate reader at 490 nm. Each experiment was repeated in triplicate. In GraphPad Prism, data were log-transformed and fit with a nonlinear curve to calculate the GI50.
# HT29 [2] = test: GI50 by MTS assay; type: cell-based; conditions: Homo sapiens, HT-29
# Procedure: as §1, §2, §3, §4, §5
# HCT15 [3] = test: GI50 by MTS assay; type: cell-based; conditions: Homo sapiens, HCT-15
# Procedure: as §1, §2, §3, §4, §5
# SW620 [4] = test: GI50 by MTS assay; type: cell-based; conditions: Homo sapiens, SW-620
# Procedure: as §1, §2, §3, §4, §5
# HCT116 [5] = test: GI50 by clonogenic assay; type: cell-based; conditions: Homo sapiens
# Procedure: (§6) For colonogenic assay, the compounds were tested at 4 concentrations for 1 week or 2 weeks on 4 colon cancer cell lines. The compounds, concentrations, colon cancer cell line panel and end time point tested are the following: • CBG: 0 μM, 10 μM, 20 μM, 40 μM, and 80 μM. • Compound 1: 0 μM, 5 μM, 7.5 μM, 10 μM, and 20 μM. • Compound 2: 0 μM, 10 μM, 20 μM, 40 μM, and 80 μM. • Colon cancer cell line panel and end time point: SW620, HCT15, HCT116, 1 week; HT29, 2 weeks
# as §2, §3, §4
# (§7) Clonogenic assay. cells were plated at 6 well plates at a density of 2,500 cells per well. After 24 hours, cells were treated with DM compounds at increasing concentrations or DMSO vehicle and incubated for 1 week or 2 weeks. Cells were then fixed and stained with 1% crystal violet (Sigma-Aldrich) solution. Quantification was performed using ImageJ. Each experiment was repeated in triplicate. In GraphPad Prism, data were log-transformed and fit with a nonlinear curve to calculate the GI50.
# HT29 [6] = test: GI50 by clonogenic assay; type: cell-based; conditions: Homo sapiens
# Procedure: as §6, §2, §3, §4, §7
# HCT15 [7] = test: GI50 by clonogenic assay; type: cell-based; conditions: Homo sapiens
# Procedure: as §6, §2, §3, §4, §7
# SW620 [8] = test: GI50 by clonogenic assay; type: cell-based; conditions: Homo sapiens
# Procedure: as §6, §2, §3, §4, §7
# UGT1A4 = target: T1, UGT1A4 (Homo sapiens, UniProt P22310); test: UGT reaction phenotyping, recombinant Supersomes; type: in vitro ADME; conditions: human, recombinant UGT1A4 Supersomes, pH 7.4, Test Conc. 1 μM
# T1 construct: purchased BD Biosciences
# T1 sequence (P22310 29-534): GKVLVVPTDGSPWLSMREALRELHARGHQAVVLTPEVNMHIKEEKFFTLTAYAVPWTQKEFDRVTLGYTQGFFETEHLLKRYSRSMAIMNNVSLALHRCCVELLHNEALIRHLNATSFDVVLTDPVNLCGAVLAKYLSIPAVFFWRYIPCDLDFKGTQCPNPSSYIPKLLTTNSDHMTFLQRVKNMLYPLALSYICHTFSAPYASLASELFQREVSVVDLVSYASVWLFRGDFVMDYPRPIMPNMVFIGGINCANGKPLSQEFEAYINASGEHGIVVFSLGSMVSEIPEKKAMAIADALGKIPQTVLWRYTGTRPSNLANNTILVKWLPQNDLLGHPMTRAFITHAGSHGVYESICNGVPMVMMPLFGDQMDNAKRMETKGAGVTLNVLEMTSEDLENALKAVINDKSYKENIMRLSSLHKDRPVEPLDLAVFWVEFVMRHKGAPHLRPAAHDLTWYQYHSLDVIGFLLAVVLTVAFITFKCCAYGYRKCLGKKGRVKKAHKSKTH
# From the text: Experimental Summary: UGT Reaction Phenotyping (7 Isoforms).
smiles,measurement,setting,value
"CCCCCc1cc(O)c(C/C=C(\C)CCC=C(C)C)c(O)c1 [CBG, cannabigerol]",GI50,"HCT116 [1]; HCTl116 cells, 48 hours, read-out: GI50 (MTS assay)",41.4 ± 1.87 µM
same,GI50,"HCT116 [1]; MTS assay, HCT116, 48 hours, average of N1-N3, read-out: GI50 AVG",41.4 µM
same,GI50,"HCT116 [1]; MTS assay, HCT116, 48 hours, replicate N1, read-out: GI50 N1",40 µM
same,GI50,"HCT116 [1]; MTS assay, HCT116, 48 hours, replicate N2, read-out: GI50 N2",44.1 µM
same,GI50,"HCT116 [1]; MTS assay, HCT116, 48 hours, replicate N3, read-out: GI50 N3",40.2 µM
same,GI50,"HT29 [2]; HT29 cells, 48 hours, read-out: GI50 (MTS assay)",43.6 ± 4.02 µM
same,GI50,"HT29 [2]; MTS assay, HT29, 48 hours, average of N1-N3, read-out: GI50 AVG",43.6 µM
same,GI50,"HT29 [2]; MTS assay, HT29, 48 hours, replicate N1, read-out: GI50 N1",42.6 µM
same,GI50,"HT29 [2]; MTS assay, HT29, 48 hours, replicate N2, read-out: GI50 N2",48 µM
same,GI50,"HT29 [2]; MTS assay, HT29, 48 hours, replicate N3, read-out: GI50 N3",40.1 µM
same,GI50,"HCT15 [3]; HCT15 cells, 48 hours, read-out: GI50 (MTS assay)",43.6 ± 5.74 µM
same,GI50,"HCT15 [3]; MTS assay, HCT15, 48 hours, average of N1-N3, read-out: GI50 AVG",43.6 µM
same,GI50,"HCT15 [3]; MTS assay, HCT15, 48 hours, replicate N1, read-out: GI50 N1",50.2 µM
same,GI50,"HCT15 [3]; MTS assay, HCT15, 48 hours, replicate N2, read-out: GI50 N2",30.2 µM
same,GI50,"HCT15 [3]; MTS assay, HCT15, 48 hours, replicate N3, read-out: GI50 N3",40.7 µM
same,GI50,"SW620 [4]; MTS assay, SW620, 48 hours, average of N1-N3, read-out: GI50 AVG",39 µM
same,GI50,"SW620 [4]; MTS assay, SW620, 48 hours, replicate N1, read-out: GI50 N1",39.5 µM
same,GI50,"SW620 [4]; MTS assay, SW620, 48 hours, replicate N2, read-out: GI50 N2",39.4 µM
same,GI50,"SW620 [4]; MTS assay, SW620, 48 hours, replicate N3, read-out: GI50 N3",38 µM
same,GI50,"SW620 [4]; SW620 cells, 48 hours, read-out: GI50 (MTS assay)",40 ± 0.84 µM
same,GI50,"HCT116 [5]; HCT-116, 168 h, HCT116 cells, 1 week, read-out: GI50 (clonogenic assay)",17.4 ± 4.91 µM
same,GI50,"HCT116 [5]; HCT-116, clonogenic assay, HCT116, average of N1-N3, read-out: GI50 AVG",17.4 µM
same,GI50,"HCT116 [5]; HCT-116, clonogenic assay, HCT116, replicate N1, read-out: GI50 N1",21.1 µM
same,GI50,"HCT116 [5]; HCT-116, clonogenic assay, HCT116, replicate N2, read-out: GI50 N2",20.7 µM
same,GI50,"HCT116 [5]; HCT-116, clonogenic assay, HCT116, replicate N3, read-out: GI50 N3",10.5 µM
same,GI50,"HT29 [6]; HT-29, 336 h, HT29 cells, 2 weeks, read-out: GI50 (clonogenic assay)",9.09 ± 1.71 µM
same,GI50,"HT29 [6]; HT-29, clonogenic assay, HT29, average of N1-N3, read-out: GI50 AVG",9.09 µM
same,GI50,"HT29 [6]; HT-29, clonogenic assay, HT29, replicate N1, read-out: GI50 N1",8.11 µM
same,GI50,"HT29 [6]; HT-29, clonogenic assay, HT29, replicate N2, read-out: GI50 N2",8.09 µM
same,GI50,"HT29 [6]; HT-29, clonogenic assay, HT29, replicate N3, read-out: GI50 N3",11.1 µM
same,GI50,"HCT15 [7]; HCT-15, 168 h, HCT15 cells, 1 week, read-out: GI50 (clonogenic assay)",17.4 ± 2.89 µM
same,GI50,"HCT15 [7]; HCT-15, clonogenic assay, HCT15, average of N1-N3, read-out: GI50 AVG",17.4 µM
same,GI50,"HCT15 [7]; HCT-15, clonogenic assay, HCT15, replicate N1, read-out: GI50 N1",15.6 µM
same,GI50,"HCT15 [7]; HCT-15, clonogenic assay, HCT15, replicate N2, read-out: GI50 N2",20.7 µM
same,GI50,"HCT15 [7]; HCT-15, clonogenic assay, HCT15, replicate N3, read-out: GI50 N3",15.9 µM
same,GI50,"SW620 [8]; SW-620, 168 h, SW620 cells, 1 week, read-out: GI50 (clonogenic assay)",20.6 ± 1.95 µM
same,GI50,"SW620 [8]; SW-620, clonogenic assay, SW620, average of N1-N3, read-out: GI50 AVG",20.6 µM
same,GI50,"SW620 [8]; SW-620, clonogenic assay, SW620, replicate N1, read-out: GI50 N1",18.9 µM
same,GI50,"SW620 [8]; SW-620, clonogenic assay, SW620, replicate N2, read-out: GI50 N2",22.7 µM
same,GI50,"SW620 [8]; SW-620, clonogenic assay, SW620, replicate N3, read-out: GI50 N3",20.1 µM
same,microsomal CLint at 1 µM,UGT1A4; read-out: Recombinant UGT CLINT Clearance,< 2.89 µL/min/mg
same,half-life at 1 µM,UGT1A4; read-out: Recombinant UGT Half Life T1/2,> 4 h
